Values of other authors in article PMC5143208 (American journal of transplantation : official journal of …, 2016).

Test system: CCR2
Details: in vitro

For d(LGTFLKC) [ECL1i], the “binding to CCR2” value is listed as “selectively bind CCR2 in a non-competitive way”.
